{"source": "patent US12152017B2", "about": "“Ketoamide compound and preparation method, pharmaceutical composition, and use thereof” (Shanghai Institute of Materia Medica, Chinese Academy of …, priority 2018, dated 2024)", "key": {"[1]": {"assay": "In vivo safety: body weight of mice during 7 days of intraperitoneal administration", "design": "species or system Balb/c mice", "conditions": "100 mg/kg i.p. once a day for 7 consecutive days", "procedure": "Next, we further evaluated the safety of compound A13 in mice. The mice in the drug group (100 mg/kg) and the DMSO control group were administered intraperitoneally, once a day, for 7 consecutive days, and then the growth status and weight changes of the mice in each group were observed."}, "in vitro": {"assay": "in vitro", "conditions": "human"}, "HCoV-229E pseudovirus": {"test_system": "HCoV-229E pseudovirus", "assay": "microbe, parasite or virus in culture", "format": "cell-based", "conditions": "Human coronavirus 229E, read-out: viral inhibitory effect, HCoV-229E pseudovirus"}, "[2]": {"assay": "Pharmacokinetic study in CD-1 mice (gavage, intravenous, intraperitoneal)", "format": "in vivo", "conditions": "for bioavailability: read-out: F (bioavailability)", "procedure": "Nine CD-1 mice, male, weighing 18-22 g, were randomly divided into 3 groups with 3 mice in each group. The test compounds were administered by gavage, intravenously and intraperitoneally according to the following schemes.\nBefore the test, they were fasted for 12 hours and were allowed to drink water freely, and were fed uniformly 2 h after administration.\nThere were 3 animals at each time point.\nThe solution for gavage administration was formulated with DMSO/0.5% HPMC (5/95, v/v) into the final concentration. Intravenous and intraperitoneal administration were formulated with DMSO/PEG300/EtOH/NaCl (5/40/5/50, v/v/v). Retention samples of the dosing solution (50 μL of the drug solution was taken and mixed well with 50 μL of DMSO before and after the administration) for testing.\nThe drug was administered according to the above dosage, the time of administration were recorded, and 20 μL of blood was collected from the mouse femoral plexus at the above set time point and placed in a heparinized test tube and centrifuged immediately at 11000 rpm for 5 min. 10 μL of plasma was immediately and accurately drawn into a centrifuge tube pre-filled with 100 μL of PK-IS solution (prepared with methanol:acetonitrile (1:1, v/v)), mixed well, and frozen to store at −20° C. for testing."}, "SARS-CoV pseudovirus": {"test_system": "SARS-CoV pseudovirus", "assay": "microbe, parasite or virus in culture", "format": "cell-based", "conditions": "Severe acute respiratory syndrome coronavirus; 100 nM; read-out: viral inhibitory effect, SARS-CoV pseudovirus"}, "VSV-G pseudovirus": {"test_system": "VSV-G pseudovirus", "format": "cell-based"}, "MERS-CoV pseudovirus": {"test_system": "MERS-CoV pseudovirus", "assay": "microbe, parasite or virus in culture", "format": "cell-based", "conditions": "Middle East respiratory syndrome-related coronavirus, Huh-7; 100 nM; read-out: viral inhibitory effect, MERS-CoV pseudovirus"}, "[3]": {"conditions": "i.p. (20 mg/Kg per Table 3), Mean of 3 mice"}, "[4]": {"conditions": "i.p. (20 mg/Kg per Table 3), individual animal, 20 mg/kg"}, "[5]": {"conditions": "i.v. 10 mg/Kg, individual animal, 10 mg/kg"}, "[6]": {"conditions": "male, CD-1, mouse, plasma, ip, 20 mg/kg, i.p. (20 mg/Kg per Table 3), individual animal"}, "[7]": {"conditions": "p.o. (gavage 20 mg/Kg per Table 3), Mean of 3 mice"}, "[8]": {"conditions": "p.o. (gavage 20 mg/Kg per Table 3), individual animal, 20 mg/kg"}}, "note": "“And” between values parts separate entries of the source, which are not always exact repeats. Identical values can stand only once. Like-named read-outs stand apart in the source and are kept apart here."}
{"smiles": "O=C(NCc1ccccc1)C(=O)[C@H](C[C@@H]1CCCNC1=O)NC(=O)[C@H](CC1CCCCC1)NC(=O)c1cc2ccccc2o1", "note": "[Example A13]", "values": [{"measurement": "body weight change versus control group", "setting": "[1]", "value": "no difference of the body weight"}, {"measurement": "CC50", "setting": "in vitro", "value": "> 100000", "unit": "nM"}, {"measurement": "inhibition at 0.1 µM", "setting": "HCoV-229E pseudovirus", "value": "~90", "unit": "%"}, {"measurement": "AUC INF_obs", "setting": "[2]; [3]", "value": 7635, "unit": "ng·h/mL"}, {"measurement": "AUC last (exposure for intraperitoneal injection)", "setting": "[2]; [3]", "value": 7298, "unit": "ng·h/mL"}, {"measurement": "C max", "setting": "[2]; [3]", "value": 3270, "unit": "ng/mL"}, {"measurement": "MRT INF_obs", "setting": "[2]; [3]", "value": 5.34, "unit": "h"}, {"measurement": "T1/2", "setting": "[2]; [3]", "value": 5.77, "unit": "h"}, {"measurement": "AUC INF_obs", "setting": "[2]; [4]", "value": "7708 ng·h/mL and 8196 ng·h/mL"}, {"measurement": "AUC last", "setting": "[2]; [4]", "value": "7304 ng·h/mL and 8077 ng·h/mL"}, {"measurement": "C max", "setting": "[2]; [4]", "value": "3583 ng/mL and 3372 ng/mL"}, {"measurement": "MRT INF_obs", "setting": "[2]; [4]", "value": "6.69 h and 6.05 h and 3.28 h"}, {"measurement": "T1/2", "setting": "[2]; [4]", "value": "5.90 h and 4.94 h"}, {"measurement": "T max", "setting": "[2]; [4]", "value": "0.250 h and 0.050 h"}, {"measurement": "AUC INF_obs", "setting": "[2]; i.v. 10 mg/Kg, Mean of 3 mice", "value": 2976, "unit": "ng·h/mL"}, {"measurement": "AUC last", "setting": "[2]; i.v. 10 mg/Kg, Mean of 3 mice", "value": 2896, "unit": "ng·h/mL"}, {"measurement": "Cl_obs", "setting": "[2]; i.v. 10 mg/Kg, Mean of 3 mice", "value": 62.5, "unit": "mL/min/kg"}, {"measurement": "MRT INF_obs", "setting": "[2]; i.v. 10 mg/Kg, Mean of 3 mice", "value": 1.88, "unit": "h"}, {"measurement": "T1/2", "setting": "[2]; i.v. 10 mg/Kg, Mean of 3 mice", "value": 3.34, "unit": "h"}, {"measurement": "VSS_obs", "setting": "[2]; i.v. 10 mg/Kg, Mean of 3 mice", "value": 6.419, "unit": "L/kg"}, {"measurement": "AUC INF_obs", "setting": "[2]; [5]", "value": "3411 ng·h/mL and 1773 ng·h/mL and 3745 ng·h/mL"}, {"measurement": "AUC last", "setting": "[2]; [5]", "value": "3300 ng·h/mL and 1734 ng·h/mL and 3652 ng·h/mL"}, {"measurement": "Cl_obs", "setting": "[2]; [5]", "value": "48.9 mL/min/kg and 94.0 mL/min/kg and 44.5 mL/min/kg"}, {"measurement": "MRT INF_obs", "setting": "[2]; [5]", "value": "3.11 h and 1.13 h and 1.40 h"}, {"measurement": "T1/2", "setting": "[2]; [5]", "value": "6.09 h and 2.07 h and 1.87 h"}, {"measurement": "VSS_obs", "setting": "[2]; [5]", "value": "9.132 L/kg and 6.389 L/kg and 3.736 L/kg"}, {"measurement": "bioavailability", "setting": "[2]; male, CD-1, mouse, plasma, intraperitoneal, i.p. 20 mg/Kg vs i.v. 10 mg/Kg", "value": 126, "unit": "%"}, {"measurement": "Tmax", "setting": "[2]; male, CD-1, mouse, plasma, ip, 20 mg/kg, i.p. (20 mg/Kg per Table 3), Mean of 3 mice", "value": 0.183, "unit": "h"}, {"measurement": "Cmax", "setting": "[2]; [6]", "value": 2860, "unit": "ng/mL"}, {"measurement": "half-life", "setting": "[2]; [6]", "value": 6.46, "unit": "h"}, {"measurement": "AUC(0-inf)", "setting": "[2]; male, CD-1, mouse, plasma, ip, 20 mg/kg, i.p. (20 mg/Kg per Table 3), individual animal, read-out: AUC INF_obs", "value": 7000, "unit": "ng·h/mL"}, {"measurement": "AUC(0-t)", "setting": "[2]; male, CD-1, mouse, plasma, ip, 20 mg/kg, i.p. (20 mg/Kg per Table 3), individual animal, read-out: AUC last", "value": 6510, "unit": "ng·h/mL"}, {"measurement": "bioavailability", "setting": "[2]; male, CD-1, mouse, plasma, oral, p.o. 20 mg/Kg vs i.v. 10 mg/Kg", "value": 7.99, "unit": "%"}, {"measurement": "AUC INF_obs", "setting": "[2]; [7]", "value": 488, "unit": "ng·h/mL"}, {"measurement": "AUC last (oral exposure)", "setting": "[2]; [7]", "value": 463, "unit": "ng·h/mL"}, {"measurement": "C max", "setting": "[2]; [7]", "value": 290, "unit": "ng/mL"}, {"measurement": "MRT INF_obs", "setting": "[2]; [7]", "value": 2.11, "unit": "h"}, {"measurement": "T1/2", "setting": "[2]; [7]", "value": 1.32, "unit": "h"}, {"measurement": "T max", "setting": "[2]; [7]", "value": 0.250, "unit": "h"}, {"measurement": "T max", "setting": "[2]; p.o. (gavage 20 mg/Kg per Table 3), individual animal", "value": 0.250, "unit": "h"}, {"measurement": "AUC INF_obs", "setting": "[2]; [8]", "value": "700 ng·h/mL and 499 ng·h/mL and 263 ng·h/mL"}, {"measurement": "AUC last", "setting": "[2]; [8]", "value": "690 ng·h/mL and 458 ng·h/mL and 241 ng·h/mL"}, {"measurement": "C max", "setting": "[2]; [8]", "value": "493 ng/mL and 259 ng/mL and 118 ng/mL"}, {"measurement": "MRT INF_obs", "setting": "[2]; [8]", "value": "1.37 h and 3.08 h and 1.88 h"}, {"measurement": "T1/2", "setting": "[2]; [8]", "value": "0.619 h and 2.15 h and 1.18 h"}, {"measurement": "CC50 relative to the detection dose", "setting": "Huh-7 cells", "value": "more than 1000 times"}, {"measurement": "inhibition at 0.1 µM", "setting": "SARS-CoV pseudovirus", "value": "~90", "unit": "%"}, {"measurement": "inhibitory effect on VSV-G-mediated pseudovirus infection", "setting": "VSV-G pseudovirus", "value": "did not show an effective inhibitory effect"}, {"measurement": "Inhibition of HCoV-OC43 infection and CPE", "setting": "HCoV-OC43 live virus; 1 μM, HCT-8 cells", "value": "effectively block the virus infection"}, {"measurement": "IC50", "setting": "HCoV-OC43 live virus; Betacoronavirus 1, OC43, HCT-8, read-out: IC50 against HCoV-OC43 live virus infection", "value": 86, "unit": "nM"}, {"measurement": "protective effect on target cells (CPE) at different concentrations", "setting": "HCoV-OC43 live virus; HCT-8 cells, HCoV-OC43", "value": "obviously dose-dependent"}, {"measurement": "inhibition at 0.1 µM", "setting": "MERS-CoV pseudovirus", "value": "~90", "unit": "%"}]}
